Source: US11590163B2, “Iron-fortified food composition” (SOCIETE DES PRODUITS NESTLE S.A., priority 2017, dated 2023)

How the values were obtained:
[1] = Colour change in iron-fortified bouillon (CIELAB ΔEab*); assay type: physicochemical; settings: chicken bouillon containing curcumin, approx. 5.5 mg iron per 6.55 g powder, reconstituted in 250 mL boiling water, 60° C. min. 30 minutes; vs bouillon with no iron
Procedure: Commercial Maggi Chicken Bouillon (Nestle Nigeria) containing curcumin was iron fortified by the addition of iron (III) complexes from Example 1, as well as ferrous sulphate (Dr. P. Lohmann GmbH KG) Ref1, and […] (Dr. P. Lohmann GmbH KG) Ref2. The amounts were chosen to provide approximately 5.5 mg of iron per 6.55 g of bouillon powder. A further sample without iron fortification was also prepared in the same manner. All samples were reconstituted in 250 mL of boiling water and kept at 60° C. for a minimum of 30 minutes.
Colour measurements were performed in 2.6×1 cm quartz cuvettes using an XRite ColorEye 7000A colorimeter. The colorimeter was set up with a D65 light source, 10 degree observer angle, specular component included and Large area View (LAV). The colour difference between the beverage with no iron salt and the iron-fortified beverages was measured for each material and expressed as ΔEab* using the CIELAB colour scale (Table 2).

[2] = Human stable-isotope iron bioavailability study (erythrocyte incorporation); assay type: in vivo; settings: healthy adult women
Procedure: Clinical trials were performed on fortified chicken bouillon and fortified chicken bouillon with corn flour to simulate inhibitory conditions. The trial was performed by ETH Zurich (Switzerland). The study was a controlled, single blind, single centre, and randomized cross-over trial in 22 healthy adult women, with each woman serving as their own control. Each participant consumed 6 different types of investigational products: bouillon respectively bouillon with maize porridge fortified either with PA:^58Fe:HCP, ^54FeSO4, (Ref1-labelled) or ^57FePP (Ref2-labelled). The PA:^58Fe:HCP complex was prepared as Example 1 sample 9 apart from the use of ^58Fe. The order of test meal administration was randomly assigned. […]
Fractional iron absorption (FIA) was calculated based on the measured shift of iron isotope ratios in the blood 14 days after the test meal administrations, from the blood samples collected on days 1, 17 and 35. […] The amounts of ^54Fe, ^57Fe and ^58Fe in the blood were calculated on the principle of isotope dilution by considering that iron isotopic labels are not mono-isotopic. Circulating iron was calculated based on blood volume and hemoglobin concentration. Blood volume was indirectly measured based on height and weight and calculated using the formula proposed by Brown et al [E. Brown et al., The Journal of clinical investigation, 41:21, 82-90.(1962)]. […]

| Compound | Δ E [1] | fractional iron absorption ([2]; in bouillon plus maize meal rich in phytate) | fractional iron absorption ([2]; in bouillon) |
| --- | --- | --- | --- |
| O=S(=O)([O-])[O-].[Fe+2] [Ref1, ferrous sulphate] | 15.2 |  |  |
| O=S(=O)([O-])[O-].[54Fe+2] [^54FeSO4] |  | 3.6% | 24.6% |
